This is an account of results in PubChem BioAssay (NCI).

Among the test systems are SR leukemia; UACC-62 melanoma; SN12C renal; MDA-MB-435; DU-145 prostate; COLO 205 colon; HOP-92 NSCLC; OVCAR-5 ovarian; MALME-3M melanoma; BT-549 breast.
Holding throughout (test): growth of human tumour cells (NCI), 48 h

SMILES strings stand for the structures.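 Growth conditions: 96-well plates. Treatment: test compound, 48 hours, 5 concentrations. Analysis: linear interpolation between bracketing concentrations; unreached endpoints set to highest concentration. GI50 = concentration required for 50% inhibition of growth. At the TGI there is no net growth.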 *1 amine or outer side, *2 acyl side, *3 side chain or, on linkers, in order; H or OH if unused. Where a SMILES comes first, the peptide text is derived from it. Bridges are numbered along the chain shown (N, C = ends). Roman numbers before positions name the chains, in order. [ ]: non-standard residue; d: D form. ξ: configuration not given here. X54 = N=C(N)NCCC[C@@H](NC(=N)CCCCCCC(=N)N[C@H](CCCNC(=N)N)C(=O)[*:2])C(=O)[*:1]; dIgl = N[C@@H](C(=O)O)C1Cc2ccccc2C1; Hyp = O=C(O)[C@@H]1C[C@@H](O)CN1; ξIgl = NC(C(=O)O)C1Cc2ccccc2C1; ξOic = O=C(O)C1CC2CCCCC2N1; ξR = N=C(N)NCCCC(N)C(=O)O; ξP = O=C(O)C1CCCN1; ξS = NC(CO)C(=O)O Bounds are passed on as bounds.

For the compound `Cn1c(-c2ccc(-c3cc(-c4cccs4)c(-c4cccs4)n3C)cc2)cc(-c2cccs2)c1-c1cccs1`, the TGI with SR leukemia, in the test with UACC-62 melanoma, in the test on SN12C renal, in the test with MDA-MB-435, with DU-145 prostate and in the test with COLO 205 colon was over 100 µM in each case.

As to `c1coc(-c2nccc3c2[nH]c2ccccc23)c1`, the TGI in the test on HOP-92 NSCLC, with SR leukemia, in the test on OVCAR-5 ovarian, with MALME-3M melanoma, in the test on UACC-62 melanoma and with SN12C renal was over 100 µM throughout. For the same compound, the values for the TGI with MDA-MB-435, in the test on DU-145 prostate and in the test on COLO 205 colon were over 100 µM, over 100 µM and 33.5 µM, respectively.

`CCC(C)(C)c1cc(O)c(C(C)(C)CC)cc1O`: the GI50 was 1.63 µM with HOP-92 NSCLC; 4.97 µM with OVCAR-5 ovarian; 2.28 µM in the test on UACC-62 melanoma; 3.2 µM in the test on SN12C renal; 2.62 µM with MDA-MB-435; 4.39 µM in the test on DU-145 prostate. Moreover, the GI50 in the test with COLO 205 colon is 2.42 µM. The TGI is 5.62 µM in the test on HOP-92 NSCLC; 17.6 µM with OVCAR-5 ovarian; 6.84 µM in the test on UACC-62 melanoma; 16.4 µM with SN12C renal; 10.9 µM with MDA-MB-435; 17.1 µM in the test on DU-145 prostate. In the test on COLO 205 colon, the TGI was found to be 5.28 µM.

In the case of `CCOC(=O)/C=C/C(=O)O/C=C/[N+](=O)[O-]`, the TGI in the test with HOP-92 NSCLC, in the test on SR leukemia, in the test on OVCAR-5 ovarian, in the test on UACC-62 melanoma, with SN12C renal and with MDA-MB-435 was over 100 µM throughout. The TGI in the test with DU-145 prostate and in the test on COLO 205 colon was over 100 µM in each case.

Turning to `N=C(N)NCCCC(NC(=O)C1CC2CCCCC2N1C(=O)[C@H](NC(=O)C(CO)NC(=O)C(NC(=O)CNC(=O)[C@@H]1C[C@@H](O)CN1C(=O)C1CCCN1C(=O)C(CCCNC(=N)N)NC(=O)[C@@H](CCCNC(=N)N)NC(=N)CCCCCCC(=N)N[C@H](CCCNC(=N)N)C(=O)NC(CCCNC(=N)N)C(=O)N1CCCC1C(=O)N1C[C@H](O)C[C@H]1C(=O)NCC(=O)NC(C(=O)NC(CO)C(=O)N[C@@H](C(=O)N1C(C(=O)NC(CCCNC(=N)N)C(=O)O)CC2CCCCC21)C1Cc2ccccc2C1)C1Cc2ccccc2C1)C1Cc2ccccc2C1)C1Cc2ccccc2C1)C(=O)O` (some centres not stated) (I: [ξR][ξP][Hyp]G[ξIgl][ξS][dIgl][ξOic][ξR]-OH / II: [ξR][ξP][Hyp]G[ξIgl][ξS][dIgl][ξOic][ξR]-OH; linker I:N-II:N via X54), the TGI in the test on HOP-92 NSCLC was 4.71 µM; in the test with SR leukemia, 2.95 µM; in the test on OVCAR-5 ovarian, over 10 µM; with MALME-3M melanoma it was 5.1 µM; in the test on UACC-62 melanoma it was 3.72 µM; in the test on SN12C renal, 4.16 µM. The TGI turned out to be 4.18 µM in the test with MDA-MB-435, 3.06 µM with DU-145 prostate and 3.28 µM in the test with COLO 205 colon.

For `COc1cccc2c1NC(=O)Cc1c-2[nH]c2ccccc12`, the TGI in the test with HOP-92 NSCLC, in the test on SR leukemia, in the test with OVCAR-5 ovarian, in the test with MALME-3M melanoma, in the test with UACC-62 melanoma and with MDA-MB-435 was over 100 µM in each case. Besides, the TGI with DU-145 prostate and in the test with COLO 205 colon was over 100 µM in each case.

For `COC(C/C(=C/CO[Si](C(C)C)(C(C)C)C(C)C)C(=O)N(C(=O)OC(C)(C)C)c1ccccc1I)OC`, the TGI with HOP-92 NSCLC, in the test on SR leukemia, with OVCAR-5 ovarian, in the test on UACC-62 melanoma, in the test on SN12C renal and in the test on MDA-MB-435 was over 100 µM in each case. Moreover, the TGI in the test on DU-145 prostate and in the test with COLO 205 colon was over 100 µM each time.

On to `COc1ccccc1NC(=S)N=Nc1c(O)[nH]c2ccccc12`, for which the TGI in the test with HOP-92 NSCLC, in the test with SR leukemia, with OVCAR-5 ovarian, with MALME-3M melanoma, with UACC-62 melanoma and in the test on SN12C renal was over 100 µM in each case. The TGI was over 100 µM in the test on MDA-MB-435, 13.7 µM in the test with DU-145 prostate and over 100 µM with COLO 205 colon.

Consider `Cc1ccccc1NC(=O)Cc1csc(N/N=C2\NC(=O)/C(=C/c3cccc([N+](=O)[O-])c3)S2)n1`, for which the TGI in the test on HOP-92 NSCLC was 38.1 µM; in the test on OVCAR-5 ovarian, 45.8 µM; in the test on SN12C renal it was over 100 µM; in the test on MDA-MB-435, 39.5 µM; with DU-145 prostate, over 100 µM; in the test on COLO 205 colon, over 100 µM.

In the case of `Fc1ccc(-c2sc(-c3ccsc3)cc2Cc2ccsc2)cc1`, the TGI in the test with HOP-92 NSCLC, with SR leukemia, with MALME-3M melanoma, in the test with UACC-62 melanoma, in the test with SN12C renal and in the test on MDA-MB-435 was over 10 µM in each case. For the same compound, the TGI with DU-145 prostate and with COLO 205 colon was over 10 µM in each case.

Take `COc1ccc2nc3c([N+](=O)[O-])ccc(NCCN(C)C)c3c(N)c2c1`: the TGI in the test on HOP-92 NSCLC stood at 2.54 µM; with SR leukemia, 2.9 µM; with OVCAR-5 ovarian, 3.09 µM; in the test on MALME-3M melanoma, 3.14 µM; in the test with UACC-62 melanoma it was 3.63 µM; in the test with SN12C renal, 2.76 µM. Also, the values for the TGI in the test with DU-145 prostate and in the test on COLO 205 colon were 3.17 µM and 2.31 µM, respectively.

As for `CCOC(=O)c1[nH]cc(C)c1-c1cccn1-c1ccc(Cl)cc1[N+](=O)[O-]`, the TGI with HOP-92 NSCLC is 51.9 µM; in the test on OVCAR-5 ovarian, over 100 µM; with UACC-62 melanoma, 48.2 µM; with SN12C renal, 64.7 µM; in the test on BT-549 breast, 83.7 µM; with MDA-MB-435 it was 56.6 µM. Also, the TGI with DU-145 prostate was over 100 µM; in the test on COLO 205 colon, 38.2 µM.

For `COc1ccc2c(c1)Oc1cc(O)ccc1[C@H]2c1ccccc1C(=O)NC(C)c1ccccc1` (some centres not stated), the TGI in the test on OVCAR-5 ovarian stood at 29.4 µM; in the test on MALME-3M melanoma, 46.2 µM; in the test with UACC-62 melanoma, 24.8 µM; in the test on SN12C renal it was 31.6 µM; with COLO 205 colon it was 31.3 µM.

Consider `CC(C)OP(=S)(NC(=S)c1ccccc1)OC(C)C`, for which the TGI with HOP-92 NSCLC, in the test on OVCAR-5 ovarian, in the test on MALME-3M melanoma, in the test on UACC-62 melanoma, in the test on SN12C renal and in the test on COLO 205 colon was over 100 µM in each case.
